According to patent publication US20100311741A1, “Bicyclosulfonyl Acid (BCSA) Compounds and Their Use as Therapeutic Agents” (INHIBOX LTD., priority 2007, published 2010):
Each block holds one compound with its values, some of them ahead of it.

Experiments:
HDAC (HeLa cell extract) = test: Selectivity assay: HDAC activity, fluorescent assay (Fluor de Lys); assay type: biochemical
Method: Alternatively, the activity of the compounds as HDAC inhibitors was determined using a commercially available fluorescent assay kit (Fluor de Lys™, BioMol Research Labs, Inc., Plymouth Meeting, USA). HeLa extract was incubated for 1 hour at 37° C. in assay buffer (25 mM HEPES, 137 mM NaCl, 2.7 mM KCl, 1 mM MgCl2, pH 8.0) with 15 μM acetylated substrate in the presence of test compound (HDAC inhibitor). The extent of deacetylation was determined by the addition of 50 μL of a 1-in-500 dilution of Developer, and subsequent measurement of the fluorescence (excitation 355 nm, emission 460 nm), according to the instructions provided with the kit.
The HeLa cell extract was made from HeLa cells (ATCC Ref. No. CCL-2) by freeze-thawing three times in 60 mM Tris.HCl, pH 8.0, 450 mM NaCl, 30% glycerol. Two cell volumes of extraction buffer were used, and particulate material was centrifuged out (20,800 g, 4° C., 10 minutes). The supernatant extract having deacetylase activity was aliquoted and frozen for storage.
(§1) Percent activity (% activity) for each test compound was calculated as:
(§2) % activity={(S^C−B)/(S^o−B)}×100
(§3) wherein S^C denotes signal measured in the presence of enzyme and the compound being tested, S^o denotes signal measured in the presence of enzyme but in the absence of the compound being tested, and B denotes the background signal measured in the absence of both enzyme and compound being tested. The IC50 corresponds to the concentration which achieves 50% activity.

[1] = biological target: T1, Human recombinant TACE enzyme (Homo sapiens, UniProt P78536); test: TACE assay (fluorescent peptide substrate); assay type: biochemical; conditions: 3.5 h; for inhibition at 2 µM: single concentration @2 (μM), read-out: Av. TACE Inhibition, % @2; for inhibition at 100 µM: single concentration @100 (μM), read-out: Av. TACE Inhibition, % @100
T1 construct: purchased R and D Systems, Abingdon, UK 930-ADB
Method: The activity of the compounds as TACE inhibitors was determined using a commercially available peptide substrate (M-2255, Bachem UK Ltd, St. Helens, UK) and recombinant TACE enzyme (930-ADB, R and D Systems, Abingdon, UK). Human recombinant TACE enzyme (5 ng/30 μL) was incubated for 3.5 hour at 37° C. in assay buffer (25 mM Tris.HCl, 2.5 μM ZnCl2, 0.005% Brij 35, pH 8.0) with 5 μM substrate in the presence of test compound (TACE inhibitor). The extent of TACE activity was determined by measurement of the fluorescence (excitation 355 nm, emission 460 nm).
as §1, §2, §3

T1 sequence (P78536 215-671 limits assumed): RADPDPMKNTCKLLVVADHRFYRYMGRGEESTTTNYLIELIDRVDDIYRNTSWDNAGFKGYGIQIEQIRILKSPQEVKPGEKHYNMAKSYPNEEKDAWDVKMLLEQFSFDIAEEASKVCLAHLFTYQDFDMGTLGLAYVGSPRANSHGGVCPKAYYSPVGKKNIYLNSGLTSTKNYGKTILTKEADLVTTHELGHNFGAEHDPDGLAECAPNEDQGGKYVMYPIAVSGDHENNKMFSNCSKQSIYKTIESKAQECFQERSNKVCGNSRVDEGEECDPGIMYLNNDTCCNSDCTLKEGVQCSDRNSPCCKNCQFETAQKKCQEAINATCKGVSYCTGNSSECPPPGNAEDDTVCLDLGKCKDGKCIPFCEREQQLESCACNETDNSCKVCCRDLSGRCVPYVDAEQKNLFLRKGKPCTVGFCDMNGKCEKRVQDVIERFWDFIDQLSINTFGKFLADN

SMILES: O=C(CC1c2ccc(-c3ccccc3)cc2S(=O)(=O)N1c1ccccc1)NO (centres unmarked) [IX-079]
- inhibition at 2 µM [1]: 4%

SMILES: O=C(CC1c2cccc(C(F)(F)F)c2S(=O)(=O)N1c1ccccc1)NO (centres unmarked) [IX-084]
- inhibition at 2 µM [1]: 0%

SMILES: O=C(CC1c2c(Cl)cc(Cl)cc2S(=O)(=O)N1c1ccccc1)NO (centres unmarked) [IX-089]
- inhibition at 2 µM [1]: 0%

SMILES: COc1cc(Cl)cc2c1S(=O)(=O)N(c1ccccc1)C2CC(=O)NO (centres unmarked) [IX-092]
- inhibition at 2 µM [1]: 23%

SMILES: O=C(NO)C1c2ccccc2S(=O)(=O)N1c1ccccc1 (centres unmarked) [IX-095]
- inhibition at 100 µM [1]: 38%

SMILES: O=C(NO)C1c2c(Cl)cccc2S(=O)(=O)N1c1ccccc1 (centres unmarked) [IX-096]
- inhibition at 100 µM [1]: 27%

SMILES: O=C(C[C@@H]1c2ccccc2S(=O)(=O)[C@H]1c1ccccc1)NO [IX-097]
- Av. HDAC Inhibition, % @100 (HDAC (HeLa cell extract); single concentration @100 (μM)): 20%@100

SMILES: O=C(O)CC1c2ccccc2S(=O)(=O)N1c1ccccc1 (centres unmarked) [IX-099]
- melting point: 178 to 179 °C (dec.)
- inhibition at 100 µM [1]: 9%

SMILES: CC#CCOc1ccc(N2C(CC(=O)O)c3ccccc3S2(=O)=O)cc1 (centres unmarked) [IX-100]
- melting point: 160 to 161 °C
- inhibition at 100 µM [1]: 50%

Next, values leading:

- EC50 (HDAC (HeLa cell extract); 15 μM acetylated substrate, 1 hour at 37° C., read-out: Av. HDAC Inhibition EC50): 23.7 µM
SMILES: CCOc1ccc2c(c1)C(CC(=O)NO)N(c1ccccc1)S2(=O)=O (centres unmarked) [IX-078]

- inhibition at 2 µM [1]: 35%
SMILES: COc1cccc2c1C(CC(=O)NO)N(c1ccccc1)S2(=O)=O (centres unmarked) [IX-082]

- inhibition at 2 µM [1]: 57%
SMILES: Cc1cc(F)c2c(c1)C(CC(=O)NO)N(c1ccccc1)S2(=O)=O (centres unmarked) [IX-085]

- inhibition at 2 µM [1]: 20%
SMILES: O=C(CC1c2c(ccc(F)c2Cl)S(=O)(=O)N1c1ccccc1)NO (centres unmarked) [IX-086]

- inhibition at 2 µM [1]: 34%
SMILES: O=C(CC1c2cccc(Cl)c2S(=O)(=O)N1c1ccccc1)NO (centres unmarked) [IX-088]

- inhibition at 2 µM [1]: 10%
SMILES: O=C(CC1c2ccc(C(F)(F)F)cc2S(=O)(=O)N1c1ccccc1)NO (centres unmarked) [IX-090]

- inhibition at 2 µM [1]: 13%
SMILES: COc1cccc2c1S(=O)(=O)N(c1ccccc1)C2CC(=O)NO (centres unmarked) [IX-091]

- inhibition at 2 µM [1]: 29%
SMILES: COc1ccc2c(c1Cl)C(CC(=O)NO)N(c1ccccc1)S2(=O)=O (centres unmarked) [IX-093]

- inhibition at 100 µM [1]: 26%
SMILES: O=C(CCC1c2ccccc2S(=O)(=O)N1c1ccccc1)NO (centres unmarked) [IX-094]
